Data as given in the supplement of paper PMC10307832.

What was measured:
Experiment in all cases: relative viability (nuclei count vs DMSO), 5 days (fraction); higher = more cells survive
[1] = compound: C[C@@H](N)c1ccc(C(=O)Nc2ccnc3[nH]ccc23)cc1 + CCNC(=O)c1noc(-c2cc(C(C)C)c(O)cc2O)c1-c1ccc(CN2CCOCC2)cc1 [Luminespib] (partner 0.01 µM)
How it was run: (§1)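 Cells from lung cancer lines were seeded into 1536-well plates and, one day later, dosed by pin tool. Treatments were either a single drug or a fixed dose of an anchor drug with five library-drug doses (not always all listed) in √10 steps. After 5 days, nuclei were stained in a one-step fixation (final 0.05% Triton X-100, 1% formaldehyde, 1 ug/ml Hoechst) and counted on 4× images, and relative viability is the treated-to-vehicle nuclei ratio, as the median of duplicate plates.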

[2] = compound: C1CNCCC1C2=CC(=NN2)C3=CC=NC=C3 + COc1cc2c(Oc3ccc(NC(=O)C4(C(=O)Nc5ccc(F)cc5)CC4)cc3F)ccnc2cc1OCCCN1CCOCC1 [Foretinib] (partner 0.25 µM)
How it was run: as §1

[3] = compound: C[C@@H](N)c1ccc(C(=O)Nc2ccnc3[nH]ccc23)cc1 + COc1cc2c(Oc3ccc(NC(=O)C4(C(=O)Nc5ccc(F)cc5)CC4)cc3F)ccnc2cc1OCCCN1CCOCC1 [Foretinib] (partner 0.25 µM)
How it was run: as §1

Tanzisertib + AZD7762 = compound: O[C@H]1CC[C@H](Nc2ncc3nc(Nc4c(F)cc(F)cc4F)n([C@H]4CCOC4)c3n2)CC1 [Tanzisertib] + NC(=O)Nc1cc(-c2cccc(F)c2)sc1C(=O)N[C@H]1CCCNC1 [AZD7762] (partner 0.2 µM)
How it was run: as §1

Cell Line | relative viability ([1]; first compound 0.04 µM) | relative viability ([1]; first compound 0.1265 µM) | relative viability ([1]; first compound 0.4 µM) | relative viability ([1]; first compound 1.265 µM) | relative viability ([1]; first compound 4 µM) | relative viability ([2]; first compound 0.08 µM) | relative viability ([2]; first compound 0.8 µM) | relative viability ([2]; first compound 2.53 µM) | relative viability ([2]; first compound 8 µM) | relative viability ([3]; first compound 0.04 µM) | relative viability ([3]; first compound 0.1265 µM) | relative viability ([3]; first compound 0.4 µM) | relative viability ([3]; first compound 1.265 µM) | relative viability ([3]; first compound 4 µM) | relative viability (Tanzisertib + AZD7762; first compound 0.08 µM) | relative viability (Tanzisertib + AZD7762; first compound 0.253 µM) | relative viability (Tanzisertib + AZD7762; first compound 0.8 µM) | relative viability (Tanzisertib + AZD7762; first compound 2.53 µM) | relative viability (Tanzisertib + AZD7762; first compound 8 µM)
SK-LU-1 | 0.229 | 0.208 | 0.187 | 0.176 | 0.163 | 0.813 | 0.946 | 0.951 | 0.885 | 0.96 | 0.804 | 0.82 | 0.732 | 0.573 |  |  |  |  | 
NCI-H1299 |  |  |  |  |  | 1.1 | 1.08 | 1.07 | 1.08 | 1.09 | 1.07 | 0.985 | 0.951 | 0.886 |  |  |  |  | 
NCI-H2009 | 0.966 | 0.957 | 0.952 | 0.836 | 0.815 | 1.2 | 1.19 | 1.17 | 1.19 | 1.2 | 1.14 | 1.11 | 1.02 | 0.868 |  |  |  |  | 
COR-L 105 | 0.733 | 0.635 | 0.596 | 0.559 | 0.346 | 1.22 | 1.07 | 1.13 | 1.67 | 0.755 | 0.939 | 1.03 | 0.865 | 0.761 |  |  |  |  | 
A549 |  |  |  |  |  | 0.932 | 0.979 | 1.03 | 1.01 | 1.09 | 0.98 | 1.07 | 0.776 | 0.515 |  |  |  |  | 
SW 1573 | 0.311 | 0.37 | 0.212 | 0.304 | 0.249 | 0.679 | 0.967 | 0.901 | 1.03 | 1.06 | 0.964 | 1.19 | 0.93 | 0.849 |  |  |  |  | 
Calu-6 |  |  |  |  |  | 0.951 | 0.912 | 0.781 | 0.914 | 0.981 | 0.973 | 0.878 | 0.807 | 0.742 |  |  |  |  | 
NCI-H1648 |  |  |  |  |  |  |  |  |  |  |  |  |  |  | 0.683 | 0.629 | 0.73 | 0.676 | 0.595
NCI-H1623 | 0.657 | 0.494 | 0.563 | 0.491 | 0.591 | 0.891 | 0.702 | 1.03 | 0.924 | 0.969 | 0.859 | 0.992 | 0.655 | 1.07 |  |  |  |  | 
HCC-44 | 0.922 | 1.11 | 1.31 | 1.21 | 0.486 |  |  |  |  |  |  |  |  |  | 0.987 | 1.05 | 0.997 | 1.01 | 1.15
HCC-78 |  |  |  |  |  | 0.532 | 0.507 | 0.602 | 0.536 | 0.626 | 0.573 | 0.623 | 0.771 | 0.693 | 0.694 | 0.723 | 0.634 | 0.474 | 0.5
COR-L23 | 0.788 | 0.804 | 0.644 | 0.437 | 0.161 | 1.07 | 0.946 | 1.01 | 0.931 | 0.943 | 1.01 | 1.02 | 0.938 | 0.534 |  |  |  |  | 
NCI-H2023 | 1 | 0.881 | 0.832 | 0.689 | 0.543 | 0.789 | 0.803 | 1.16 | 1.11 | 0.965 | 1.14 | 1.4 | 0.988 | 0.766 |  |  |  |  | 
NCI-H1792 | 0.407 |  | 0.568 | 0.45 | 0.448 |  |  |  |  |  |  |  |  |  | 0.842 | 0.693 | 0.742 | 0.697 | 0.523
NCI-H1563 | 0.514 | 0.484 | 0.499 | 0.508 | 0.514 | 0.727 | 0.94 | 0.943 | 0.973 | 0.974 | 0.986 | 0.876 | 0.923 | 0.914 |  |  |  |  | 
HCC-366 |  |  |  |  |  | 0.95 | 0.946 | 0.905 | 1.03 | 0.987 | 0.926 | 0.936 |  | 1.07 |  | 0.316 | 0.277 | 0.192 | 0.286
NCI-H522 | 1.34 | 1.06 | 1.59 | 1.02 | 0.885 |  |  |  |  |  |  |  |  |  | 1.1 | 0.891 | 0.839 | 0.955 | 0.886
SK-MES-1 | 0.834 | 0.796 | 0.752 | 0.585 | 0.714 | 0.85 | 0.855 | 1.05 | 1 | 0.849 | 1.07 | 0.847 | 0.785 | 0.78 |  |  |  |  | 
EBC-1 |  |  |  |  |  | 0.116 | 0.111 | 0.0919 | 0.135 | 0.0976 | 0.0967 | 0.0934 | 0.0803 | 0.092 |  |  |  |  | 
NCI-H1650 | 0.2 | 0.191 | 0.177 | 0.17 | 0.195 | 0.798 | 0.98 | 1.16 | 1.21 | 1.14 | 1.03 | 1.41 | 1.18 | 0.862 |  |  |  |  | 
IA-LM |  |  |  |  |  | 1.09 | 1.37 | 1.19 | 1.26 | 1.28 | 1.33 | 1.43 | 1.2 | 1.08 |  |  |  |  | 
NCI-H661 | 0.921 | 0.923 | 0.873 | 0.781 | 0.811 | 1.1 | 1.05 | 1.01 | 1.02 | 0.947 | 1.09 | 1.03 | 0.923 | 0.855 |  |  |  |  | 
NCI-H2228 | 0.069 | 0.147 | 0.116 | 0.122 | 0.178 | 0.871 | 0.929 | 0.939 | 0.911 | 1.03 | 0.743 | 1.02 | 0.911 | 0.866 |  |  |  |  | 
NCI-H520 | 0.192 | 0.188 | 0.24 | 0.218 | 0.213 | 0.613 | 0.722 | 0.811 | 0.545 | 0.862 | 0.707 | 0.817 | 1.28 | 0.95 |  |  |  |  | 
